Assays:
[1] = target: T1, BMK1 (Homo sapiens, UniProt Q13164); assay: EGF-stimulated BMK1 autophosphorylation in HeLa cells; conditions: concentration of 1 μM
[2] = target: T1, BMK1; assay: Ambit KINOMEscan single-point score; format: binding; conditions: concentration of 10 μM
[3] = target: panel of 402 kinases; assay: Ambit KINOMEscan ATP-site competition binding, panel of 402 kinases; conditions: concentration of 10 μM, Erk5 = BMK1

T1 sequence (Q13164 whole entry): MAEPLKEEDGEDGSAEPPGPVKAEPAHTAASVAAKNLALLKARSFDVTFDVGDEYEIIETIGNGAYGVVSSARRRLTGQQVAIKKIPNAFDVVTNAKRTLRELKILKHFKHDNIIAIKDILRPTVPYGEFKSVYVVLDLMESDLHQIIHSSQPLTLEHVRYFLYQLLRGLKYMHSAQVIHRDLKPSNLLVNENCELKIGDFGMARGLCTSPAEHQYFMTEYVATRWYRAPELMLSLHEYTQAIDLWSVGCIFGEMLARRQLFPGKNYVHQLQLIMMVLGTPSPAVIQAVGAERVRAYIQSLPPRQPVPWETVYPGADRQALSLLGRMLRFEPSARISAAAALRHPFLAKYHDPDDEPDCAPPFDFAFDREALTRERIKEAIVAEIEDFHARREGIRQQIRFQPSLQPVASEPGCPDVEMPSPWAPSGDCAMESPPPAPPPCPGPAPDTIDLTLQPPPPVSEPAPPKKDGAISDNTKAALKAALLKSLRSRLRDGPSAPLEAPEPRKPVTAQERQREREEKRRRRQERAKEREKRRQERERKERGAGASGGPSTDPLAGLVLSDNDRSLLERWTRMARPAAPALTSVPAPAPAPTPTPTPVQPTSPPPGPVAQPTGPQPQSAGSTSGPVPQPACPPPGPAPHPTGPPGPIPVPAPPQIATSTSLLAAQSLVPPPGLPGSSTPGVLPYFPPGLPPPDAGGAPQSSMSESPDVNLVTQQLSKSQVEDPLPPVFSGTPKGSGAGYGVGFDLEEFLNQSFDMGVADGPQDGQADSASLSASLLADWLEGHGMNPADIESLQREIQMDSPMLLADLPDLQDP

Compound | inhibition of BMK1 autophosphorylation [1] | ambit score against BMK1 [2] | kinase hits (kinases that exhibited greater than 95% displacement from an immobilized ligand) [3]
COc1cc(N2CCN(C)CC2)ccc1Nc1ncc2c(n1)N(C)c1ccccc1C(=O)N2C [compound 11] | significantly inhibited | 0 | DCAMKL1, DCAMKL2, ERK5, FRK, MNK2, PKD1, PKD2, RSK4∼b, TAO1, TAO3, TNK1, TNK2, ULK1, ULK2
COc1cc(N2CCN(C)CC2)ccc1Nc1ncc2c(n1)N(C)c1ccccc1C(=O)N2 [compound 10] |  | 0.5 | ABL1(F317I), BRK, C-FMS, DCAMKL1, DCAMKL2, ERK5, FRK, GAK, KIT(L576P), MYLK4, TNK1, TNK2
